Assay results reported in PubChem BioAssay AID1417 (Emory University Molecular Libraries Screening Center, 2008).

biological target: Induced myeloid leukemia cell differentiation protein Mcl-1 (Homo sapiens) (UniProt Q07820); experiment: Mcl-1 Noxa peptide disruption concentration-response – biochemical, TR-FRET, dose response (AID 1417); settings: Mcl-1/Noxa peptide interaction, cell-free TR-FRET (terbium/rhodamine), 2 h; measured here: absolute IC50
Sequence (Q07820 whole entry, looked up): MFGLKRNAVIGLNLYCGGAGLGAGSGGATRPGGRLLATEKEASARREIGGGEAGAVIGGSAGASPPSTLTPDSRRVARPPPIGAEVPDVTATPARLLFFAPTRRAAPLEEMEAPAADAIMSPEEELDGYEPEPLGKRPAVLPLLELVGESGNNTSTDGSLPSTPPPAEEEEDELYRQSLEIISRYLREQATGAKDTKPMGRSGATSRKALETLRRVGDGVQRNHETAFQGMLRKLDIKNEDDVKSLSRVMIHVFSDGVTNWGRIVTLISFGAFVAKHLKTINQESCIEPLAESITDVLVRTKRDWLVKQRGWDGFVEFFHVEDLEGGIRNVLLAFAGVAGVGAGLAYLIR

| SMILES | IC50 [nM] |
| --- | --- |
| O=C1CSC(=S)N1/N=C/c1ccc(O)c([N+](=O)[O-])c1 | 1390 |
| O=C(O)c1ccccc1NS(=O)(=O)c1ccc(NNC(=S)Nc2ccc(OC(F)F)cc2)c([N+](=O)[O-])c1 | < 400 |
| CC(=O)c1cc(O)c2ccccc2c1O | < 400 |
| CCOC(=O)c1c(NC(=O)N/N=C/c2ccc(O)c(OC)c2)sc(C(C)=O)c1C | 1590 |
| O=C(O)COc1ccccc1C(Nc1ccccn1)c1cc(Cl)c2cccnc2c1O (stereo not given) | < 400 |
| COC(=O)c1ccc2nc(Nc3nc4c(F)cc(F)cc4s3)sc2c1 | < 400 |
| CCC(C)(C)n1nnnc1C(c1ccc(O)c(OC)c1)N1CCc2ccccc2C1 (stereo not given) | < 400 |
| O=C(Nc1ccc(N2CCCC2)cc1)c1ccc2ccccc2c1 | 4970 |
| CCc1nnc(NC(=O)c2cc(-c3ccco3)nc3ccccc23)s1 | 2540 |
| N=C1/C(=C\c2ccc(-c3ccc(C(=O)O)cc3)o2)C(=O)N=C2SC=C(c3ccccc3)N12 | < 400 |
| Cc1cc(C(F)F)n2nc(C(=O)Nc3sc4c(c3C(N)=O)CCC4)nc2n1 | 11400 |
| Nc1c(O)ccc2c1C(=O)c1ccccc1C2=O | 43400 |
| CNc1sc(C(=O)c2ccccc2F)c(N)c1-c1nc2ccccc2s1 | 5670 |
| COCCCNC(=O)/C(C#N)=C/c1ccc(OCC(=O)O)c(OC)c1 | 3460 |
| COc1ccc(NC(C)C(=O)Nc2ccc(C#N)cc2)cc1Cl (stereo not given) | > 54000 |
| COc1cccc2c(=O)c3cccc(N)c3[nH]c12 | > 54000 |
| COc1ccc2nc(-n3c(O)c(C4=c5ccccc5=NC4=O)[nH]c3=S)sc2c1 | < 400 |
| Cc1ccc(C(=O)NNc2c3ccccc3nc3ccccc23)cc1 | 9970 |
| O=C1Nc2ccc(Br)cc2/C1=C/C(=O)c1ccc2c(c1)OCO2 | 1380 |
| Cc1nc(C)c(C(=O)Nc2nc3c(C)cccc3s2)o1 | 2630 |
| CCOC(=O)C1CCCN(c2ccc(NC(=O)c3snc4c(=O)[nH]c(C)nc34)cc2)C1 (stereo not given) | 6540 |
| CCOc1cc(/C=N/NC(=O)c2ccc(-c3csc(Nc4ccc(C)cc4)n3)cc2)ccc1OCC(=O)O | 1070 |
| NS(=O)(=O)c1ccc(-c2ccc(/C=C3\SC(=S)N(C4CCS(=O)(=O)C4)C3=O)o2)cc1 (stereo not given) | 2550 |
| Cc1[nH]c2ccccc2c1/C=C/c1nc2ccccc2c(=O)[nH]1 | 6260 |
| CCC(C)NCCCOc1c(C)cc(C)cc1Br (stereo not given) | > 54000 |
| COc1ccc(-c2csc(NC(=S)NC(=O)c3cccs3)n2)cc1OC | 3310 |
| COc1ccc(CCNC(=O)CN(c2ccc(OC)c(OC)c2)S(C)(=O)=O)cc1 | > 54000 |

| SMILES | IC50 [nM] |
| --- | --- |
| CN(C)c1ccc(CC(=O)c2nc3ccccc3s2)cc1 | 3190 |
| COc1ccc(OC)c2c1C(=O)C(Cl)=C(Cl)C2=O | < 400 |
| O=C(N/N=C/c1ccc(O)c(O)c1)c1ccc(CSc2cccc3cccnc23)cc1 | 3090 |
| Cc1ccc(-n2c(=O)c3cc4c(=O)n(-c5ccc(C)c(C)c5)c(=O)c4c(C(=O)c4ccc(C(=O)O)cc4)c3c2=O)cc1C | 4280 |
| COc1cccc(NS(=O)(=O)c2ccc3c(c2)C2C=CCC2C(c2ccc(C(=O)O)cc2)N3)c1 (stereo not given) | 1020 |
| CC(C)(C)C1=CC=C(C(C)(C)C)C(=O)C1=O | < 400 |
| O=c1cc(/N=C/c2coc3c(ccc4ccccc43)c2=O)[nH]c(=S)[nH]1 | 4080 |
| Cc1ccc(NC(=O)CN2C(=O)S/C(=C/c3ccc(-c4cc(C(=O)O)ccc4C)o3)C2=O)cc1C | 2850 |
| Nc1c(C(=O)NCCN2CCOCC2)c2nc3ccccc3nc2n1Cc1ccco1 | > 54000 |
| CN(C)c1ccc(NC(=O)c2ccc(COc3cccc(Cl)c3)o2)cc1 | < 400 |
| COc1ccc(N2C(=O)C3CCCN3C2=O)cc1 (stereo not given) | > 54000 |
| COc1cccc(C(=O)Nc2cc(Cl)c(O)c(Cl)c2)c1 | > 54000 |
| C=CCOC(=O)c1cc(-c2ccc(/C=C3\C(=O)NC(=O)C(C#N)=C3C)o2)ccc1Cl | < 400 |
| COc1ccc(C(=O)c2sc3nc(-c4ccccc4)ccc3c2N)cc1OC | > 54000 |
| O=C1CCCC2=C1C(c1ccc(O)c(O)c1)Nc1ccc3ncccc3c12 (stereo not given) | < 400 |
| CC1=Nc2ccc(C)cc2/C1=C/c1c(N)n2c(S(=O)(=O)C(C)C)nsc2nc1=O | > 54000 |
| Cc1ccc(N2CC(C(=O)Nc3ccc(N(C)C)cc3)CC2=O)cc1C (stereo not given) | > 54000 |
| S=C(NNc1ccnc2cc(Cl)ccc12)Nc1ccc(Cl)cc1Cl | 6370 |
| Cc1ccc(CNC(=O)c2ccc(-n3cccc3)cc2)cc1 | 2260 |
| Cc1c(O)ccc(/C=N/Nc2nc(-c3cccnc3)nc3ccccc23)c1O | < 400 |
| Cc1ccc(-c2cc(C(=O)OCC(=O)N(C)C3CCS(=O)(=O)C3)c3ccccc3n2)o1 (stereo not given) | 2980 |
| CC1=Nc2cccc3cccc(c23)N1 | 2630 |
| O=C(Cn1c(=O)n(-c2ccccc2)c(=O)c2sccc21)N1CCCC1 | > 54000 |
| O=C(O)CCCN1C(=O)/C(=C/C=C/c2ccco2)SC1=S | > 54000 |
| CC1=C(SCCC#N)S/C(=C2\SC(C)=C(SCCC#N)S2)S1 | 2710 |
| Oc1[nH]c2ccccc2c1N=Nc1nc2ccccc2s1 | 5010 |
| COc1ccc(NC(=O)c2ccccc2N(Cc2ccccc2)S(C)(=O)=O)cc1 | > 54000 |

| SMILES | IC50 [nM] |
| --- | --- |
| CN(C)c1ccc(Nc2c3c4c(cccc4n(C)c2=O)C(=O)c2ccccc2-3)cc1 | < 400 |
| COc1ccccc1C(=O)N=Nc1c(O)[nH]c2ccc([N+](=O)[O-])cc12 | 4720 |
| CCn1nc(C)c(/C=N/NC(=O)Cc2ccc(Cl)cc2)c1C | > 54000 |
| CNc1ccc(Br)cc(C(=O)/C=C/c2cccc(OC)c2)c1=O | 4900 |
| Cn1c(N)c(C(=O)COC(=O)c2cc(-c3ccco3)nc3ccccc23)c(=O)n(Cc2ccccc2)c1=O | < 400 |
| Nc1ccc(N)c(C(=O)O)c1 | 1310 |
| CC1=C(C#N)C(=O)NC(=O)/C1=C/c1ccc(-c2ccc(S(N)(=O)=O)cc2)o1 | < 400 |
| Cc1cc2c(C(C)C)c(O)c(O)c(C=O)c2c(O)c1-c1c(C)cc2c(C(C)C)c(O)c(O)c(C=O)c2c1O | < 400 |
| O=C(NCCO)c1ccc2nc(-c3ccco3)c(-c3ccco3)nc2c1 | 527 |
| O=C(O)CCCCCN1C(=O)/C(=C\c2cn(-c3ccccc3)nc2-c2cccs2)SC1=S | 2500 |
| N#CC1=C(N)N(c2ccc(F)cc2)C2=C(C1c1ccc(O)cc1)S(=O)(=O)CC2 (stereo not given) | 3400 |
| CC(=O)Nc1sc(N/N=C/c2ccc(O)cc2)nc1-c1ccc(C)cc1 | 3720 |
| Brc1ccc(C2Nc3cccc4cccc(c34)N2)s1 | < 400 |
| COc1ccc(-n2cccc2/C=C2\C(=N)N3N=C(c4ccco4)SC3=NC2=O)cc1 | < 400 |
| Cc1ccc(Cn2c(=N)c(C(=O)NCc3ccco3)cc3c(=O)n4ccccc4nc32)cc1 | 3600 |
| CCN1C(=O)/C(=C\c2ccc(-c3ccc([N+](=O)[O-])cc3OC)o2)SC1=Nc1cccc(C(=O)O)c1 | < 400 |
| O=C(O)c1cccc2c1NC(C(=O)O)C1CC(Sc3ccccc3[N+](=O)[O-])C(Cl)C21 (stereo not given) | 881 |
| Cc1ccccc1C(=O)Nc1nc(-c2cccnc2)cs1 | < 400 |
| O=C(O[C@@H]1OC2COC(=O)c3cc(O)c(O)c(O)c3-c3c(cc(O)c(O)c3O)C(=O)O[C@@H]([C@H]1O)[C@@H]2O)c1cc(O)c(O)c(O)c1 | < 400 |
| Cc1ccc(NC(=O)Cn2c(O)c(N=NC(=O)c3cc4ccccc4cc3O)c3ccccc32)cc1 | 2980 |
| CC1=C(C#N)C(=O)N(C2CCS(=O)(=O)C2)C(=O)/C1=C\c1ccc(C)o1 (stereo not given) | < 400 |
| N=c1c(C(=O)NCc2ccc3c(c2)OCO3)cc2c(=O)n3ccccc3nc2n1Cc1cccnc1 | 3260 |
| Cc1cccc(NC(=O)CSc2nnc(-c3ccco3)c(-c3ccco3)n2)c1C | 6470 |
| COc1ccc(-c2ccc3c(n2)sc2c(=O)[nH]c(=O)[nH]c23)cc1OC | < 400 |
| O=C(O)c1ccc(N/N=C/C2=C(N3CCOCC3)C(=C\c3ccccc3)/CC2)cc1 | 2020 |
| Nc1ccc(O)c2c1C(=O)c1ccccc1C2=O | 1880 |
| COc1cc(/C=C2\CC/C(=C\c3cc(OC)c(O)c(OC)c3)C2=O)cc(OC)c1O | < 400 |

| SMILES | IC50 [nM] |
| --- | --- |
| O=C(O)CSc1cc(NS(=O)(=O)c2cccc([N+](=O)[O-])c2)c2ccccc2c1O | < 400 |
| C=CCN1C(=O)/C(=C2/C(=O)N(CC(=O)O)c3ccccc32)S/C1=N/c1nccs1 | < 400 |
| Cc1cc(NS(=O)(=O)c2ccc(Nc3nc(-c4sc(NC(=O)c5ccccc5)nc4C)cs3)cc2)no1 | 1770 |
| O=C(COC(=O)Cn1cnc2ccccc21)Nc1ccc2c(c1)C(=O)c1ccccc1C2=O | 2590 |
| O=C1NN(c2ccc(Cl)cc2)C(=O)/C1=C\c1ccc(-c2cccc(C(=O)O)c2)o1 | 894 |
| O=C(O)c1ccc(-n2cccc2/C=C2/NC(=O)N(c3cccc(Cl)c3)C2=O)cc1 | < 400 |
| COC(=O)[C@@]1(Cc2ccccc2)[C@H]2c3cc(C(=O)N4CCCC4)n(CCSCCO)c3C[C@H]2CN1C(=O)c1ccccc1 | > 54000 |
| Cc1ccc(C(=O)Nc2ccc(N3CCCC3)cc2)cc1 | > 54000 |
| Cc1ccc(/C=C/C(=O)Nc2ccc(N(C)C)cc2)o1 | < 400 |
| O=C(/C=C/c1ccco1)Nc1ccc2nn(-c3ccccc3)nc2c1 | 3240 |
| COc1ccc(NC(=O)c2cc(-c3ccco3)nc3ccccc23)cc1S(=O)(=O)N1CCOCC1 | < 400 |
| O=C1NC(=O)N(c2ccccc2)C(=O)/C1=C\c1ccc2c3c(cccc13)CC2 | 8210 |
| CCCCn1c(NCc2ccc(N(C)C)cc2)nc2ccccc21 | 1140 |
| O=C(O)CCCCCN1C(=O)/C(=C\c2ccc(-c3ccc(Cl)cc3)o2)SC1=S | 1360 |
| O=C(NCCCCc1ccccc1)C1CC(c2ccccc2[N+](=O)[O-])=NO1 (stereo not given) | > 54000 |
| CN(C)c1ncc(C2=C(Cl)C(=O)C(N3CCCC3)=C(Cl)C2=O)s1 | < 400 |
| Cc1ccc(C2C(/C=C3/SC(=S)NC3=O)=C(c3cccs3)Oc3ccccc32)cc1 (stereo not given) | < 400 |
| Cc1ccc(-c2ccc(/C=C3/NC(=O)NC3=O)o2)cc1[N+](=O)[O-] | 6440 |
| COc1ccccc1CNC(=O)COC(=O)c1cc(-c2ccco2)nc2ccccc12 | 1800 |
| CC(C)Oc1ccc(C(=O)Nc2ccc(N(C)C)cc2)cc1 | > 54000 |
| O=C(O)C1Nc2c(C(=O)N3CCOCC3)cccc2C2C=CCC12 (stereo not given) | > 54000 |
| O=C(CCO)c1ccc(O)cc1 | 3190 |
| Cc1ccc([N+](=O)[O-])cc1N=Nc1c(-c2ccc([N+](=O)[O-])cc2)[nH]n(C(N)=S)c1=O | < 400 |
| Cc1cc(/C=C2/C(=O)NN(c3ccccc3)C2=O)c(C)n1-c1cccc(O)c1 | 3250 |
